Experimental data published in patent US20140357512A1, “HISTONE DEACETYLASE (HDAC) BIOMARKERS IN MULTIPLE MYELOMA” (priority 2013, published 2014).

Test system: human myeloma cell line MM.1S
Assay: SILAC acetylated-lysine peptide profiling, HDAC inhibitor vs DMSO (light/heavy ratio)
Type: cell-based
From the text: An embodiment of the invention comprises utilizing the SILAC method in order to quantitate changes in protein expression between two or more populations of cells. The SILAC method is a technique based on mass spectrometry that detects differences in protein abundance among samples using non-radioactive isotopic labeling. The SILAC method is known in the art, and described in detail in Ong et al., “Stable Isotope Labeling by Amino Acids in Cell Culture, SILAC, as a Simple and Accurate Approach to Expression Proteomics”, Molecular & Cellular Proteomics, vol. 1, pp. 376-386 (2002), which is incorporated herein by reference in its entirety.
Briefly, the SILAC method involves growing two populations of cells in cell culture. The first population of cells is grown in growth media containing normal amino acids (“normal media”). The second population of cells is grown in media lacking a standard essential amino acid (such as lysine), but is then supplemented with a non-radioactive, isotopically labeled form of that essential amino acid (such as lysine labeled with ^13C atoms, rather than normal ^12C atoms), which is called “heavy media”. When the two populations of cells are each growing in the medium, they incorporate the amino acids into all of their proteins. The growth of cells maintained in the heavy media is no different from that in normal media. All peptides containing the heavy amino acids are heavier than their normal counterparts. The cells from each of the two populations of cells are lysed. The lysates from each of the two cell populations are then combined. The combined cell lysates are then analyzed by mass spectrometry. Pairs of chemically identical peptides of different stable isotope composition can be differentiated in a mass spectrometer due to their difference in mass. The ratio of peak intensities in the mass spectrum for such peptide pairs reflects the abundance ratio for the two proteins.
This example describes SILAC studies that were performed to compare the effects of three different HDAC inhibitors (Compound A, Compound B, and tubastatin A) to a control on a human multiple myeloma cell line. The HDAC inhibitors were also compared amongst themselves to determine differences in their effects.
A human myeloma cell line MM.1S was grown using either ^12C (light) or ^13C (heavy) lysine containing culture medium. The “heavy” cells were treated with DMSO as the control, and the “light” cells were treated with a single HDAC inhibitor at 37° C. for 6 hours. The heavy and light cells were lysed, and the lysates were mixed in 1:1 ratio and digested with the protease trypsin. The acetylated lysine containing peptides (due to the action of the HDAC inhibitor) in the digested peptide pool were captured by a non-specific anti-acetylated lysine antibody cocktail (the antibodies identify both light and heavy acetylated peptides), and subjected to mass spectrometry analysis in order to identify thousands of individual peptides.
Thousands of peptides were identified in pairs (^12C and ^13C) due to their known mass differences. The amino acid sequence and quantitative ratio (Light/Heavy) of a given peptide in two differentially treated cell lysates were then determined and annotated with their possible protein (gene) sources.
As stated above, three HDAC inhibitors (Compound A, Compound B, and Tubastatin A) were used. Thus, the SILAC method was performed three times, with a different HDAC inhibitor compared to a control each time. Accordingly, there are three pairs of quantitative data in the table below, i.e., Compound A:DMSO, Compound B:DMSO, and Tubastatin A:DMSO. A cut-off of 1.30 fold of change (increase or decrease) was then used to determine “changed” or “+” in the table, and any peptides with a fold of change less than 1.3 fold were determined to be “unchanged” or “0” in the table. Those peptides that were not identified were marked as “NA” in the table. […]

O=C(NO)c1cnc(NC2(c3cccc(F)c3)CCCCC2)nc1 [Compound B, 2-((1-(3-fluorophenyl)cyclohexyl)amino)-N-hydroxypyrimidine-5-carboxamide]
0.00 log 2: L/H ratio of acetylated peptide (ac)AEK(ac)FDCHYCR (SEQ ID NO: 725, four and a half LIM domains protein 1 isoform 5 [20], FHL1) | L/H ratio of acetylated peptide […](ac)VIPK (SEQ ID NO: 726, Endoplasmic reticulum resident protein 29 [48], ERP29) | L/H ratio of acetylated peptide TITMK(ac)QLLR (SEQ ID NO: 728, Branched-chain-amino-acid aminotransferase [281], BCAT2) | L/H ratio of acetylated peptide SK(ac)FVLVK (SEQ ID NO: 729, Endoplasmic reticulum resident protein 29 [54], ERP29) | L/H ratio of acetylated peptide TVGQLYK(ac)EQLAK (SEQ ID NO: 731, Isoform 1 of Myosin-9 [651], MYH9) | L/H ratio of acetylated peptide AAETCQEPK(ac)EFR (SEQ ID NO: 732, NADH dehydrogenase [ubiquinone] 1 alpha subcomplex assembly factor 4 [91], NDUFAF4) | L/H ratio of acetylated peptide ILMEHIHK(ac)LK (SEQ ID NO: 735, 60S ribosomal protein L19 [144], RPL19) | L/H ratio of acetylated peptide K(ac)FDQLLAEEK (SEQ ID NO: 737, Isoform 1 of Myosin-9 [1445], MYH9) | L/H ratio of acetylated peptide FVEFDMK(ac)PVCK (SEQ ID NO: 738, Isoform 2 of LIM and senescent cell antigen-like-containing domain protein 2 [326], LIMS2) | L/H ratio of acetylated peptide KAEAQIAAK(ac)NLDK (SEQ ID NO: 740, Aspartate aminotransferase mitochondrial [90], GOT2) | L/H ratio of acetylated peptide ALCTGEK(ac)GFGYK (SEQ ID NO: 744, Peptidyl-prolyl cis-trans isomerase F mitochondrial [86], PPIF) | L/H ratio of acetylated peptide IYK(ac)SDGIK (SEQ ID NO: 745, ADP/ATP translocase 2 [166], SLC25A5) | L/H ratio of acetylated peptide VPK(ac)TAENFR (SEQ ID NO: 748, Peptidyl-prolyl cis-trans isomerase D [43], PPID) | L/H ratio of acetylated peptide VNCLDK(ac)FWHK (SEQ ID NO: 749, Isoform 1 of LIM and SH3 domain protein 1 [23], LASP1) | L/H ratio of acetylated peptide KGEDFVK(ac)TLK (SEQ ID NO: 750, Malate dehydrogenase mitochondrial [335], MDH2) | L/H ratio of acetylated peptide EAEFTK(ac)SIAK (SEQ ID NO: 751, Signal peptidase complex subunit 2 [191], LOC653566, SPCS2) | L/H ratio of acetylated peptide FEDK(ac)TVAYTEQK (SEQ ID NO: 754, Protein disulfide-isomerase A3 [218], PDIA3) | L/H ratio of acetylated peptide ILEFFGLK(ac)K (SEQ ID NO: 756, Protein disulfide-isomerase [308], P4HB) | light to heavy ratio (L/H ratio) of acetylated peptide LQDFK(ac)SFLLK (SEQ ID NO: 582) (Serine hydroxymethyltransferase mitochondrial [469], gene SHMT2, inhibitor:DMSO) | light to heavy ratio (L/H ratio) of acetylated peptide SFLLK(ac)DSETSQR (SEQ ID NO: 567) (Serine hydroxymethyltransferase mitochondrial [474], gene SHMT2, inhibitor:DMSO) | light to heavy ratio (L/H ratio) of acetylated peptide SGLLDK(ac)WK (SEQ ID NO: 602) (Signal peptidase complex subunit 2 [38], gene LOC653566, SPCS2, inhibitor:DMSO) | light to heavy ratio (L/H ratio) of acetylated peptide YDDPEVQK(ac)DIK (SEQ ID NO: 578) (Stress-70 protein mitochondrial [135], gene HSPA9, inhibitor:DMSO) | light to heavy ratio (L/H ratio) of acetylated peptide […](ac)SLAEHR (SEQ ID NO: 534) (Stress-induced-phosphoprotein 1 [325], gene STIP1, inhibitor:DMSO) | light to heavy ratio (L/H ratio) of acetylated peptide NICSK(ac)YSVR (SEQ ID NO: 256) (Thioredoxin domain-containing protein 5 [390], TXNDC5, MUTED, MUTED-TXNDC5, drug:DMSO) | light to heavy ratio (L/H ratio) of acetylated peptide SEIINSK(ac)NFDR (SEQ ID NO: 525) (Transmembrane protein 43 [159], gene TMEM43, inhibitor:DMSO) | light to heavy ratio (L/H ratio) of acetylated peptide VK(ac)[…] (SEQ ID NO: 562) (Tricarboxylate transport protein mitochondrial [149], gene SLC25A1, inhibitor:DMSO) | light to heavy ratio (L/H ratio) of acetylated peptide VPGK(ac)DTVTK (SEQ ID NO: 308) (Trifunctional enzyme subunit beta mitochondrial [272], HADHB, drug:DMSO)
−0.63: L/H ratio of acetylated peptide (ac)[…](ac)AAK (SEQ ID NO: 6) (VDAC3 [12], log 2 scale, drug vs DMSO)
0.00: light to heavy ratio (L/H ratio) of acetylated peptide, log 2 scale (SFEEK(ac)VENLK (SEQ ID NO: 233), Isoform 1 of Tumor protein D52 [180], TPD52) | L/H ratio of acetylated peptide LFAK(ac)[…] (SEQ ID NO: 98) (SFPQ [319], log 2 scale, drug vs DMSO) | L/H ratio of acetylated peptide […](ac)MILIGR (SEQ ID NO: 100) (SFXN1 [86], log 2 scale, drug vs DMSO) | L/H ratio of acetylated peptide […](ac)DK (SEQ ID NO: 103) (SLC25A5 [92], log 2 scale, drug vs DMSO) | L/H ratio of acetylated peptide AFFK(ac)GAWSNVLR (SEQ ID NO: 102) (SLC25A5 [272], log 2 scale, drug vs DMSO) | L/H ratio of acetylated peptide […](ac)ANVAK (SEQ ID NO: 101) (SLC25A10 [173], log 2 scale, drug vs DMSO) | L/H ratio of acetylated peptide TWEK(ac)LLLAAR (SEQ ID NO: 104) (SNORA6, RPSAP15, SNORA62, RPSA [57], log 2 scale, drug vs DMSO) | L/H ratio of acetylated peptide […](ac)YGAIR (SEQ ID NO: 107) (SRSF1 [38], log 2 scale, drug vs DMSO) | L/H ratio of acetylated peptide (ac)AEPSAPESK(ac)HK (SEQ ID NO: 108) (STT3B [10], log 2 scale, drug vs DMSO) | light to heavy ratio (L/H ratio) of acetylated peptide, log 2 scale (TAMK(ac)YNLGLDLR (SEQ ID NO: 158), Glutamate dehydrogenase 1 mitochondrial [527], GLUD1) | light to heavy ratio (L/H ratio) of acetylated peptide, log 2 scale (TLQYK(ac)[…] (SEQ ID NO: 252), 40S ribosomal protein S16 [50], RPS16) | light to heavy ratio (L/H ratio) of acetylated peptide, log 2 scale (TPVIVTLK(ac)ENER (SEQ ID NO: 176), Hypoxia up-regulated protein 1 [75], HYOU1) | L/H ratio of acetylated peptide […](ac)YVPR (SEQ ID NO: 109) (TUBB2C [58], log 2 scale, drug vs DMSO) | L/H ratio of acetylated peptide ILAEGGGAK(ac)FK (SEQ ID NO: 110) (TUFM [91], log 2 scale, drug vs DMSO) | L/H ratio of acetylated peptide QIESK(ac)[…] (SEQ ID NO: 111) (TXN [8], log 2 scale, drug vs DMSO) | L/H ratio of acetylated peptide VYVAK(ac)[…] (SEQ ID NO: 113) (TXNDC5, MUTED, MUTED-TXNDC5 [118], log 2 scale, drug vs DMSO) | L/H ratio of acetylated peptide […](ac)YQGPR (SEQ ID NO: 112) (TXNDC5, MUTED, MUTED-TXNDC5 [150], log 2 scale, drug vs DMSO) | light to heavy ratio (L/H ratio) of acetylated peptide, log 2 scale (TYGEIFEK(ac)FHPIR (SEQ ID NO: 188), NADH dehydrogenase [ubiquinone] 1 subunit C2 [114], NDUFC2) | light to heavy ratio (L/H ratio), log 2 scale, acetylated peptide […](ac)YGK (SEQ ID NO: 817) (Transitional endoplasmic reticulum ATPase [109], gene VCP, drug:DMSO) | light to heavy ratio (L/H ratio), log 2 scale, acetylated peptide FGAPQK(ac)DVK (SEQ ID NO: 788) (Trifunctional enzyme subunit alpha mitochondrial [359], gene HADHA, drug:DMSO) | light to heavy ratio (L/H ratio), log 2 scale, acetylated peptide ILQEGVDPK(ac)K (SEQ ID NO: 789) (Trifunctional enzyme subunit alpha mitochondrial [569], gene HADHA, drug:DMSO) | L/H ratio of acetylated peptide VVVTK(ac)YCDPDSYHR (SEQ ID NO: 114) (U2AF2 [462], log 2 scale, drug vs DMSO) | L/H ratio of acetylated peptide FGIAAK(ac)[…] (SEQ ID NO: 115) (VDAC1 [224], log 2 scale, drug vs DMSO) | L/H ratio of acetylated peptide YK(ac)[…] (SEQ ID NO: 116) (VDAC2 [63], log 2 scale, drug vs DMSO) | L/H ratio of acetylated peptide YK(ac)[…] (SEQ ID NO: 117) (VDAC3 [63], log 2 scale, drug vs DMSO)
0.74 log 2: L/H ratio of acetylated peptide (TVSK(ac)[…] (SEQ ID NO: 428), 6-phosphogluconate dehydrogenase decarboxylating [38], PGD)
−0.56 log 2: L/H ratio of acetylated peptide (TFYQMYDK(ac)GLVYR (SEQ ID NO: 407), Isoleucyl-tRNA synthetase mitochondrial [233], IARS2)
−0.45 log 2: L/H ratio of acetylated peptide (SQNTK(ac)[…] (SEQ ID NO: 458), Nucleoprotein TPR [713], TPR) | light to heavy ratio (L/H ratio) of acetylated peptide SNYK(ac)MMFVK (SEQ ID NO: 368) (Small acidic protein [174], C11orf58, drug:DMSO)
−0.57 log 2: L/H ratio of acetylated peptide (VAHLALK(ac)HR (SEQ ID NO: 436), Isoform Rpn10A of 26S proteasome non-ATPase regulatory subunit 4 [9]8, PSMD4)
−0.53 log 2: L/H ratio of acetylated peptide (SQSCETK(ac)LLDEK (SEQ ID NO: 410), Isoform 3 of Pro-interleukin-16 [277], IL16)
−0.86 log 2: L/H ratio of acetylated peptide (TPSVGK(ac)[…] (SEQ ID NO: 418), Isoform Long of Antigen KI-67 [2264], MKI67)
−0.38 log 2: L/H ratio of acetylated peptide (TTHLIAK(ac)EEMIHNLQ (SEQ ID NO: 435), 26S proteasome non-ATPase regulatory subunit 12 [448], PSMD12)
−0.47: L/H ratio of acetylated peptide […](ac)TAVAPIER (SEQ ID NO: 11) (SLC25A5 [23], log 2 scale, drug vs DMSO)
−0.74 log 2: L/H ratio of acetylated peptide (SFYYK(ac)LR (SEQ ID NO: 395), Fatty acid synthase [2426], FASN)
0.40 log 2: L/H ratio of acetylated peptide (TTTCSK(ac)LAYYYQR (SEQ ID NO: 451), Signal recognition particle 54 kDa protein [120], SRP54)
